Active and inactive are the calls of the source. The rule behind the calls is not given here.
What was measured:
Type in all cases: functional
Rattus norvegicus [1] = organism: Rattus norvegicus; experiment: Effect of compound on rat thoracic aorta constriction in rat at 10e-5 M concentration; No effect
Rattus norvegicus [2] = organism: Rattus norvegicus; experiment: Compound was tested for maximal contraction of rat thoracic aorta
Rattus norvegicus [3] = organism: Rattus norvegicus; experiment: Effect of compound on rat thoracic aorta constriction in rat

Structure (SMILES)	pD2 (Rattus norvegicus [1])	Emax (Rattus norvegicus [2]) [%]	pD2 (Rattus norvegicus [3])
CCCCC/C=C\C[C@@H]1[C@H](/C=C/[C@@H](O)CCCC(=O)OC)[C@@H](O)C[C@H]1O	inactive		
CCCCC/C=C\C[C@@H]1[C@H](/C=C/[C@H](O)CCCC(=O)OC)[C@@H](O)C[C@H]1O	inactive		
CCCCC[C@H](O)/C=C/[C@H]1C2CC(CO2)[C@@H]1C/C=C\CCCC(=O)O (some centres undefined)		189	7.8

Reference: ChEMBL document CHEMBL1133959, “Syntheses and preliminary pharmacological evaluation of the two epimers of the 5-F2t-isoprostane” (2001)
